Columns and labels:
Assay type in all cases: in vivo
[1] = system: EPHHL (Euphorbia heterophylla); assay: Post-emergence greenhouse herbicide test, visual rating; settings: post-emergence, 21 days after application
Protocol: (§1) Seeds of grass and broadleaf weeds were sown in pots (diameter: 7 cm) filled with a sandy loam soil. Following germination the plants were grown under optimal conditions up to a growth stage of BBCH 11 to 14 depending on species.
(§2) The applications were performed by post emergence treatments on the planted pots using a spray volume of 300 L water per hectare. The herbicides were applied alone and in combination as described.
(§3) The trial was conducted in the greenhouse ensuring optimal growing conditions.
(§4) The herbicidal effects were assessed 21 days following application by visual ratings comparing treated and untreated plants (0%=no effect to 100%=complete die-off).
(§5) The compounds of the formula (Ia), (Ib) and (I) were formulated as WP (wettable powder) formulation.
(§6) • BBCH=the BBCH code provides information about the morphological development stage of a plant. Officially, the abbreviation denotes the Biologische Bundesanstalt, Bundessortenamt and Chemische Industrie [Federal Biological Institute for Agriculture and Forestry, Federal Office for Crop Plant Varieties and Chemical Industry]. The range of BBCH 00-10 denotes the germination stages of the seeds until surface penetration. The range of BBCH 11-25 denotes the leaf development stages until stocking (corresponding to the number of tillers or side-shoots). In the Trials, the Following Biotypes of Broad-Leaved Weeds and Weed Grasses were Used: • ALOMY—sensitive (Alopecurus myosuroides) sensitive to customary herbicidally active compounds. • ALOMY_R (resistant) (Alopecurus myosuroides) resistant to herbicidally active compounds of the HRAC groups A and B; population mixture of field origin having increased metabolic resistance (IMR) and some target site resistance (TSR). • LOLRI—sensitive (Lolium rigidum) sensitive to customary herbicidally active compounds. • LOLRI_R (resistant) (Lolium rigidum) resistant to herbicidally active compounds of the HRAC groups A and B; population mixture of field origin having increased metabolic resistance (IMR) and some target site resistance (TSR). • AMAPA_R (resistant) (Amaranthus palmeri) resistant to herbicidally active compounds of the HRAC groups A and B; population mixture of field origin having increased metabolic resistance (IMR) and some target site resistance (TSR). • CHRVI (Chloris virgate) feather finger grass • KCHSC (Kochia scoparia) Mexican burning bush • MATIN (Matricaria inodora) false chamomile • POLCO (Polygonum convolvulus) black knotweed • ABUTH (Abutilon theophrasti) china jute • AMAPA (Amaranthus palmeri) palmer amaranth • BIDPI (Bidens pilosa) common blackjack • CHEAL (Chenopodium album) common lambsquarters • EPHHL (Euphorbia heterophylla) wild spurge • XANST (Xanthium strumarium) large cocklebur • EMEAU (Emex australis)—Cathead • GALAP (Gallium aparine)—Cleaver
(§7) The synergistic herbicidal activity was calculated using Colby's formula (cf. S. R. Colby; Weeds 15 (1967), 20-22): […]

[2] = system: ABUTH (Abutilon theophrasti); assay: as above; settings: post-emergence, 21 days after application
Protocol: as §1, §2, §3, §4, §5, §6, §7

[3] = system: LOLRI - sensitive (Lolium rigidum); assay: as above; settings: post-emergence, 21 days after application
Protocol: as §1, §2, §3, §4, §5, §6, §7

[4] = system: AMAPA-R (resistant) (Amaranthus palmeri); assay: as above; settings: 25 g/ha single isomer; post-emergence; 21 days after application
Protocol: as §1, §2, §3, §4, §5, §6, §7

BID PI (Bidens pilosa) = assay: as above; settings: 25 g/ha single isomer; post-emergence; 21 days after application
Protocol: as §1, §2, §3, §4, §5, §6, §7

EMEAU (Emex australis) = assay: as above; settings: 50 g/ha; post-emergence; 21 days after application
Protocol: as §1, §2, §3, §4, §5, §6, §7

[5] = system: MATIN (Matricaria inodora); assay: as above; settings: post-emergence, 21 days after application
Protocol: as §1, §2, §3, §4, §5, §6, §7

CHRVI (Chloris virgate) = assay: as above; settings: 12.5 g/ha; post-emergence; 21 days after application
Protocol: as §1, §2, §3, §4, §5, §6, §7

[6] = system: CHEAL (Chenopodium album); assay: as above; settings: post-emergence, 21 days after application
Protocol: as §1, §2, §3, §4, §5, §6, §7

[7] = system: LOLRI_R (resistant) (Lolium rigidum); assay: as above; settings: post-emergence, 21 days after application
Protocol: as §1, §2, §3, §4, §5, §6, §7

KCHSC (Kochia scoparia) = assay: as above; settings: 12.5 g/ha; post-emergence; 21 days after application
Protocol: as §1, §2, §3, §4, §5, §6, §7

GALAP (Gallium aparine) = assay: as above; settings: 50 g/ha; post-emergence; 21 days after application
Protocol: as §1, §2, §3, §4, §5, §6, §7

[8] = system: XANST (Xanthium strumarium); assay: as above; settings: post-emergence, 21 days after application
Protocol: as §1, §2, §3, §4, §5, §6, §7

[9] = system: POLCO (Polygonum convolvulus); assay: as above; settings: 12.5 g/ha; post-emergence; 21 days after application
Protocol: as §1, §2, §3, §4, §5, §6, §7

[10] = system: grass and broadleaf weeds; assay: Comparative testing of crystalline (I), (Ia), (Ib), summary of tables 3 to 6; settings: (I) vs (Ia); (Ia) vs (Ib); see tables 3 to 6
Protocol: as §1, §2, §3, §4, §5, §7

Row | Structure (SMILES) | EPHHL Observed ([1]; 25 g/ha single isomer) | EPHHL Observed ([1]; 50 g/ha single isomer) | ABUTH Observed ([2]; 25 g/ha single isomer) | ABUTH Observed ([2]; 50 g/ha single isomer) | LOLRI Observed ([3]; 6.25 g/ha) | LOLRI Observed ([3]; 12.5 g/ha) | AMAPA-R Observed [4] | BID PI Observed (BID PI (Bidens pilosa)) | EMEAU Observed (EMEAU (Emex australis)) | MATIN Observed ([5]; 12.5 g/ha) | MATIN Observed ([5]; 25 g/ha) | MATIN Observed ([5]; 50 g/ha) | CHRVI Observed (CHRVI (Chloris virgate)) | CHEAL Observed ([6]; 25 g/ha single isomer) | LOLRI_R Observed ([7]; 6.25 g/ha) | LOLRI_R Observed ([7]; 12.5 g/ha) | LOLRI_R Observed ([7]; 25 g/ha) | KCHSC Observed (KCHSC (Kochia scoparia)) | GALAP Observed (GALAP (Gallium aparine)) | XANST Observed ([8]; 25 g/ha single isomer) | further results
1 | C=C[C@]1(C(=O)N[C@H]2CO[C@@H](C(=O)OC)C2)CC(c2cc(F)cc(F)c2)=NO1 [(Ia), methyl(2R,4R)-4-[[(5S)-3-(3,5-difluorophenyl)-5-vinyl-4H-isoxazole-5-carbonyl]amino]-tetrahydrofuran-2-carboxylate] | 30% | 35% | 45% | 60% | 20% | 90% | 35% | 30% | 80% | 0% | 0% | 0% | 35% | 70% | 15% | 20% | 30% | 70% | 75% | 0% | XANST Observed ([8]; 50 g/ha single isomer): 20%; XANST Observed ([8]; 100 g/ha single isomer): 20%; POLCO Observed [9]: 85%; herbicidal activity compared with the other crystalline forms [10]: superior in activity
2 | C=C[C@]1(C(=O)N[C@@H]2CO[C@H](C(=O)OC)C2)CC(c2cc(F)cc(F)c2)=NO1 [(Ib), methyl(2S,4S)-4-[[(5S)-3-(3,5-difluorophenyl)-5-vinyl-4H-isoxazole-5-carbonyl]amino]-tetrahydrofuran-2-carboxylate] | 35% | 35% | 10% | 20% | 0% | 0% | 25% | 10% | 45% | 0% | 0% | 0% | 20% | 20% | 0% | 0% | 0% | 40% | 35% | 0% | CHEAL Observed ([6]; 50 g/ha single isomer): 60%; XANST Observed ([8]; 50 g/ha single isomer): 10%; XANST Observed ([8]; 100 g/ha single isomer): 20%; POLCO Observed [9]: 40%

Source: patent publication US12714106B2 (Bayer Aktiengesellschaft, priority 2020, dated 2026)
